Reference: patent publication US9796711B2, “Substituted pyrazolo[3,4-b]pyridin-6-carboxylic acids and method of use” (AbbVie S.àr.l., priority 2015, dated 2017)

Target: T1, ΔF508-CFTR (Homo sapiens, UniProt P13569, DEL508-508)
T1 construct: host or cells: CFBE41o-, doxycycline-inducible
Experiment: CFTR cell surface levels using HRP-tagged ΔF508-CFTR expressing CFBE cells, in the presence of a co-corrector
Format: cell-based
Details: HRP-tagged ΔF508-CFTR expressing CFBE cells, in the presence of 3 μM co-corrector; for EC50: read-out: EC50
How it was run: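 Cells were seeded with 0.5 μg/mL doxycycline and held 68 h at 37 °C. Test compounds plus 3 μM co-corrector (final 0.1% DMSO) were then added for 20 h at 33 °C. Washed cells received HRP substrate, and luminescence was normalized between DMSO and 3 μM co-corrector controls.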

T1 sequence (P13569 with tags, fused parts or gaps DEL508-508): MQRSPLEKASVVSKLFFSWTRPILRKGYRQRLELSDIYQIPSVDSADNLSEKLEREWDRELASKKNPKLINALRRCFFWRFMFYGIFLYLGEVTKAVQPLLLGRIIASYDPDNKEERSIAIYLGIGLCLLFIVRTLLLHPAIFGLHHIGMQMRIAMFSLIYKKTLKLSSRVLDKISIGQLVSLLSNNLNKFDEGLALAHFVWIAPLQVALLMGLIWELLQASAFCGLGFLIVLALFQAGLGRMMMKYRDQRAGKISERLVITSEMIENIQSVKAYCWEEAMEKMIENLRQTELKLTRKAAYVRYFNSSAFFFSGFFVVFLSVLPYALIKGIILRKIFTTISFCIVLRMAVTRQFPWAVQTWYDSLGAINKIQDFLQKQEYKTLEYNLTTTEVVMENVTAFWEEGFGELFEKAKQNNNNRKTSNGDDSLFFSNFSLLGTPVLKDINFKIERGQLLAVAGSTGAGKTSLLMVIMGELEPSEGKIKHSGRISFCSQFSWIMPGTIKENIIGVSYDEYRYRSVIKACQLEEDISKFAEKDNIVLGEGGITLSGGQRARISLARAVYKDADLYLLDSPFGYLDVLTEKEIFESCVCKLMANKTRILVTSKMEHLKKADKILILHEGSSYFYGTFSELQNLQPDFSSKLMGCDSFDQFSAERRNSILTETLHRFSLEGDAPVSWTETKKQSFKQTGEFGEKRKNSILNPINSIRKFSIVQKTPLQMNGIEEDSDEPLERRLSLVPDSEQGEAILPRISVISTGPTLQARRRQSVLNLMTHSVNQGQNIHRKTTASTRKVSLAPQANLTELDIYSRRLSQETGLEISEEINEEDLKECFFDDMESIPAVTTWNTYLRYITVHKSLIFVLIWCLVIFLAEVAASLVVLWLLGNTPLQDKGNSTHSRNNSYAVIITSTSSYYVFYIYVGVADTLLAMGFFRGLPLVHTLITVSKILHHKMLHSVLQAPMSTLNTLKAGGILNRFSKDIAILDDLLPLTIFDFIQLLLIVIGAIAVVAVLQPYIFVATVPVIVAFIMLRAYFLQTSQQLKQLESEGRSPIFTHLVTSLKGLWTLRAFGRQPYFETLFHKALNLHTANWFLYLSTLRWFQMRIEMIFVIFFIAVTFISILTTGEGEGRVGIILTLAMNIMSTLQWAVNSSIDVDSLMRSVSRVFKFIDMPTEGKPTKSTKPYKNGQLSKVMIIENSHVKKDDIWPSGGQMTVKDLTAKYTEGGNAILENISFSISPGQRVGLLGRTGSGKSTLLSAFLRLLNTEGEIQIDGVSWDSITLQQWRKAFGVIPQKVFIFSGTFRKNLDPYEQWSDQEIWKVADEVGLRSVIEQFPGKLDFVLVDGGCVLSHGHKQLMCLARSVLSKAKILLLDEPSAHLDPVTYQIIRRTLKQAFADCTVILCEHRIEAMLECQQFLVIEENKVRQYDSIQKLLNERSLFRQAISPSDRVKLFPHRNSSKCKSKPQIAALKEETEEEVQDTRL

SMILES	% Activation [%]	EC50 [nM]
O=C(O)c1cc(N2CCCN(C3CCCC3)CC2)c2c(C3CCC3)nn(-c3ccccc3)c2n1 [compound 705, 3-cyclobutyl-4-(4-cyclopentyl-1,4-diazepan-1-yl)-1-phenyl-1H-pyrazolo[3,4-b]pyridine-6-carboxylic acid]	249.8	1670
O=C(O)c1cc(N2CCC[C@@H](O)C2)c2c(C3CCC3)nn(-c3ccccc3)c2n1 [compound 706, 3-cyclobutyl-4-[(3R)-3-hydroxypiperidin-1-yl]-1-phenyl-1H-pyrazolo[3,4-b]pyridine-6-carboxylic acid]	284.4	488
CCCN1CCN(c2cc(C(=O)O)nc3c2c(C2CCC2)nn3-c2ccccc2)CC1 [compound 707, 3-cyclobutyl-1-phenyl-4-(4-propylpiperazin-1-yl)-1H-pyrazolo[3,4-b]pyridine-6-carboxylic acid]	326.3	341
CN(C)C(=O)N1CCN(c2cc(C(=O)O)nc3c2c(C2CCC2)nn3-c2ccccc2)CC1 [compound 708, 3-cyclobutyl-4-[4-(dimethylcarbamoyl)piperazin-1-yl]-1-phenyl-1H-pyrazolo[3,4-b]pyridine-6-carboxylic acid]	314.8	147
O=C(O)c1cc(N2CC(N3CCOCC3)C2)c2c(C3CCC3)nn(-c3ccccc3)c2n1 [compound 709, 3-cyclobutyl-4-[3-(morpholin-4-yl)azetidin-1-yl]-1-phenyl-1H-pyrazolo[3,4-b]pyridine-6-carboxylic acid]	223.9	1670
CCCCN1CCCN(c2cc(C(=O)O)nc3c2c(C2CCC2)nn3-c2ccccc2)CC1 [compound 710, 4-(4-butyl-1,4-diazepan-1-yl)-3-cyclobutyl-1-phenyl-1H-pyrazolo[3,4-b]pyridine-6-carboxylic acid]	282.6	1350
O=C(O)c1cc(N2CCC(N3CCCC(C(=O)N4CCOCC4)C3)CC2)c2c(C3CCC3)nn(-c3ccccc3)c2n1 (stereo not shown) [compound 711, 3-cyclobutyl-4-[3-(morpholine-4-carbonyl)[1,4′-bipiperidin]-1′-yl]-1-phenyl-1H-pyrazolo[3,4-b]pyridine-6-carboxylic acid]	248.8	1110
CCCN1CCCN(c2cc(C(=O)O)nc3c2c(C2CCC2)nn3-c2ccccc2)CC1 [compound 712, 3-cyclobutyl-1-phenyl-4-(4-propyl-1,4-diazepan-1-yl)-1H-pyrazolo[3,4-b]pyridine-6-carboxylic acid]	242.9	608
O=C(O)c1cc(N2CCC3(C2)OCCO3)c2c(C3CCC3)nn(-c3ccccc3)c2n1 [compound 713, 3-cyclobutyl-4-(1,4-dioxa-7-azaspiro[4.4]nonan-7-yl)-1-phenyl-1H-pyrazolo[3,4-b]pyridine-6-carboxylic acid]	243.5	659
O=C(O)c1cc(N2CCN(CCOCCO)CC2)c2c(C3CCC3)nn(-c3ccccc3)c2n1 [compound 714, 3-cyclobutyl-4-{4-[2-(2-hydroxyethoxy)ethyl]piperazin-1-yl}-1-phenyl-1H-pyrazolo[3,4-b]pyridine-6-carboxylic acid]	212.5	1410
O=C(O)c1cc(N2CC[C@@H](N3CCCCC3)C2)c2c(C3CCC3)nn(-c3ccccc3)c2n1 [compound 715, 3-cyclobutyl-1-phenyl-4-[(3R)-3-(piperidin-1-yl)pyrrolidin-1-yl]-1H-pyrazolo[3,4-b]pyridine-6-carboxylic acid]	261.4	1270
N#CC1COC2(C1)CN(c1cc(C(=O)O)nc3c1c(C1CCC1)nn3-c1ccccc1)C2 (stereo not shown) [compound 716, 4-(7-cyano-5-oxa-2-azaspiro[3.4]octan-2-yl)-3-cyclobutyl-1-phenyl-1H-pyrazolo[3,4-b]pyridine-6-carboxylic acid]	282.9	772
CN1CCCN(C(=O)CCN2CCN(c3cc(C(=O)O)nc4c3c(C3CCC3)nn4-c3ccccc3)CC2)CC1 [compound 717, 3-cyclobutyl-4-{4-[3-(4-methyl-1,4-diazepan-1-yl)-3-oxopropyl]piperazin-1-yl}-1-phenyl-1H-pyrazolo[3,4-b]pyridine-6-carboxylic acid]	124.6	5000
CN(C)C(=O)C1(N2CCCC2=O)CCN(c2cc(C(=O)O)nc3c2c(C2CCC2)nn3-c2ccccc2)CC1 [compound 718, 3-cyclobutyl-4-[4-(dimethylcarbamoyl)-4-(2-oxopyrrolidin-1-yl)piperidin-1-yl]-1-phenyl-1H-pyrazolo[3,4-b]pyridine-6-carboxylic acid]	209.8	1670
O=C(O)c1cc(N2CC3(CCCOC3)C2)c2c(C3CCC3)nn(-c3ccccc3)c2n1 [compound 720, 3-cyclobutyl-4-(6-oxa-2-azaspiro[3.5]nonan-2-yl)-1-phenyl-1H-pyrazolo[3,4-b]pyridine-6-carboxylic acid]	263.1	356
O=C(O)c1cc(N2CCN3CCC[C@@H]3C2)c2c(C3CCC3)nn(-c3ccccc3)c2n1 [compound 721, 3-cyclobutyl-4-[(8aR)-hexahydropyrrolo[1,2-a]pyrazin-2(1H)-yl]-1-phenyl-1H-pyrazolo[3,4-b]pyridine-6-carboxylic acid]	302.1	510
O=C(O)c1cc(N2CCN(CCO)CC2)c2c(C3CCC3)nn(-c3ccccc3)c2n1 [compound 722, 3-cyclobutyl-4-[4-(2-hydroxyethyl)piperazin-1-yl]-1-phenyl-1H-pyrazolo[3,4-b]pyridine-6-carboxylic acid]	247	1670
CN1CCOC(C2CN(c3cc(C(=O)O)nc4c3c(C3CCC3)nn4-c3ccccc3)C2)C1 (stereo not shown) [compound 723, 3-cyclobutyl-4-[3-(4-methylmorpholin-2-yl)azetidin-1-yl]-1-phenyl-1H-pyrazolo[3,4-b]pyridine-6-carboxylic acid]	344.8	1050
CN(C1CCN(C2CN(c3cc(C(=O)O)nc4c3c(C3CCC3)nn4-c3ccccc3)C2)CC1)C1COC1 [compound 724, 3-cyclobutyl-4-(3-{4-[methyl(oxetan-3-yl)amino]piperidin-1-yl}azetidin-1-yl)-1-phenyl-1H-pyrazolo[3,4-b]pyridine-6-carboxylic acid]	208.5	1670
O=C(O)c1cc(N2CC(N3CCC(N4CCOCC4)CC3)C2)c2c(C3CCC3)nn(-c3ccccc3)c2n1 [compound 725, 3-cyclobutyl-4-{3-[4-(morpholin-4-yl)piperidin-1-yl]azetidin-1-yl}-1-phenyl-1H-pyrazolo[3,4-b]pyridine-6-carboxylic acid]	173.2	869
CCOCCN1CCC(N2CCN(c3cc(C(=O)O)nc4c3c(C3CCC3)nn4-c3ccccc3)CC2)CC1 [compound 726, 3-cyclobutyl-4-{4-[1-(2-ethoxyethyl)piperidin-4-yl]piperazin-1-yl}-1-phenyl-1H-pyrazolo[3,4-b]pyridine-6-carboxylic acid]	409.6	311
CC(O)CN1CCC(N2CCN(c3cc(C(=O)O)nc4c3c(C3CCC3)nn4-c3ccccc3)CC2)CC1 (stereo not shown) [compound 727, 3-cyclobutyl-4-{4-[1-(2-hydroxypropyl)piperidin-4-yl]piperazin-1-yl}-1-phenyl-1H-pyrazolo[3,4-b]pyridine-6-carboxylic acid]	348	1670
CN(C)CCCN1CCN(c2cc(C(=O)O)nc3c2c(C2CCC2)nn3-c2ccccc2)CC1 [compound 728, 3-cyclobutyl-4-{4-[3-(dimethylamino)propyl]piperazin-1-yl}-1-phenyl-1H-pyrazolo[3,4-b]pyridine-6-carboxylic acid]	221.6	1670
CCOCCN1CCN(C2CCN(c3cc(C(=O)O)nc4c3c(C3CCC3)nn4-c3ccccc3)CC2)CC1 [compound 729, 3-cyclobutyl-4-{4-[4-(2-ethoxyethyl)piperazin-1-yl]piperidin-1-yl}-1-phenyl-1H-pyrazolo[3,4-b]pyridine-6-carboxylic acid]	530.4	1670
O=C(O)c1cc(N2CCC(OCCN3CCCCC3)CC2)c2c(C3CCC3)nn(-c3ccccc3)c2n1 [compound 730, 3-cyclobutyl-1-phenyl-4-{4-[2-(piperidin-1-yl)ethoxy]piperidin-1-yl}-1H-pyrazolo[3,4-b]pyridine-6-carboxylic acid]	418.7	71.5
CCN(CC)CCCC1CCN(c2cc(C(=O)O)nc3c2c(C2CCC2)nn3-c2ccccc2)CC1 [compound 731, 3-cyclobutyl-4-{4-[3-(diethylamino)propyl]piperidin-1-yl}-1-phenyl-1H-pyrazolo[3,4-b]pyridine-6-carboxylic acid]	399.5	94.5
O=C(O)c1cc(N2CCC(CCCN3CCCCC3)CC2)c2c(C3CCC3)nn(-c3ccccc3)c2n1 [compound 732, 3-cyclobutyl-1-phenyl-4-{4-[3-(piperidin-1-yl)propyl]piperidin-1-yl}-1H-pyrazolo[3,4-b]pyridine-6-carboxylic acid]	409.6	119
O=C(O)c1cc(N2CCC(CCCN3CCCC3)CC2)c2c(C3CCC3)nn(-c3ccccc3)c2n1 [compound 733, 3-cyclobutyl-1-phenyl-4-{4-[3-(pyrrolidin-1-yl)propyl]piperidin-1-yl}-1H-pyrazolo[3,4-b]pyridine-6-carboxylic acid]	396.9	85.1
CCN(C1CCN(c2cc(C(=O)O)nc3c2c(C2CCC2)nn3-c2ccccc2)CC1)C1COC1 [compound 734, 3-cyclobutyl-4-{4-[ethyl(oxetan-3-yl)amino]piperidin-1-yl}-1-phenyl-1H-pyrazolo[3,4-b]pyridine-6-carboxylic acid]	415	244
